Source: patent US20260138976A1 (Hoffmann-La Roche Inc., priority 2022, published 2026)

Legend:
primary human T-cells = assay: IL2 secretion measurements (24 h, CD3-stimulated T-cells, PBS counter screen); format: cell-based; conditions: for Emax IL2 (% activation): CD3 condition, normalised to DMSO (neutral) and 20 μM reference compound A1 = 100%; for EC50: Homo sapiens, T-cell, CD3-stimulated primary human T-cells, IL2 secretion, fitted sigmoidal curve, read-out: Tcell IL2 CD3 EC50
Summary of the method: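 Expanded primary human T-cells (100k/well) were plated on anti-CD3-coated or PBS-only plates with compound in a 5–6 point dose response (top 20 or 10 μM final, 3.333-fold, 0.2% DMSO). IL-2 in 24 h supernatants was quantified by ProQuantum immunoassay or ELISA. Values were normalized to DMSO and 20 μM reference compound A1 (100%), giving EC50 and Emax.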

[1] = target: T1, DGKζ (hDGKzeta(1-928)-N-His) (Homo sapiens, UniProt Q13574); assay: In vitro DGK inhibition assay, DGKzeta ADP Glo (in house); format: biochemical; conditions: 2 nM DGKζ, 50 μM ATP, 125 uM DLG in liposomes, 1 hour reaction
T1 construct: hDGKzeta(1-928)-N-His; His (N); made in house; host or cells: Sf21 insect cells (baculovirus)
T1 sequence (Q13574 whole entry): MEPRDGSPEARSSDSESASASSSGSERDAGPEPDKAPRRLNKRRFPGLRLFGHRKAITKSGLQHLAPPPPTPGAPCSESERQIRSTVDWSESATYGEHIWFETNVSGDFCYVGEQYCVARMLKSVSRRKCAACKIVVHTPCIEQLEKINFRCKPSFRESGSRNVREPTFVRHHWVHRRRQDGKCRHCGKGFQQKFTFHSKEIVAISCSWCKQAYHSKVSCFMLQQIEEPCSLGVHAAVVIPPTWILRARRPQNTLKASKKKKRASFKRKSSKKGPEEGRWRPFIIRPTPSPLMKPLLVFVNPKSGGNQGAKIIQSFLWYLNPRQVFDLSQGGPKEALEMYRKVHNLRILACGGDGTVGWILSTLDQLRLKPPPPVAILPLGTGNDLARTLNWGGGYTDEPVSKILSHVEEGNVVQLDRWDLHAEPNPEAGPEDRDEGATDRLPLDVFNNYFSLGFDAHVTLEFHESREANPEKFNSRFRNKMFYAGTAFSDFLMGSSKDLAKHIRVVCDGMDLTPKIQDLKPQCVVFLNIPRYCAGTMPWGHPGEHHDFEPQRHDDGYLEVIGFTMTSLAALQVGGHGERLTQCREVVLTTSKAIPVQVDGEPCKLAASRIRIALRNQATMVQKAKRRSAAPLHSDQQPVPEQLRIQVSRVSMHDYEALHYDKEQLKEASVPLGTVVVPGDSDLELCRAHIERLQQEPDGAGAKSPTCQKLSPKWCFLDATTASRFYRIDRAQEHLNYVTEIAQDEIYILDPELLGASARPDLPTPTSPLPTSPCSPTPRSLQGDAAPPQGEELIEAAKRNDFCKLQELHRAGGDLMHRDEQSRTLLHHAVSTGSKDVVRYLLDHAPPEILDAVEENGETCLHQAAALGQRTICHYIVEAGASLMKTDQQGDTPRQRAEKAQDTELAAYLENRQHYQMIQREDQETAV
Summary of the method: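 Full-length His-tagged human DGKα (4 nM) or DGKζ (2 nM), expressed in Sf21 cells, phosphorylated 125 µM DLG in PS/PC liposomes with ATP at 25 µM (α) or 50 µM (ζ) for 1 h. ADP was measured by ADP-Glo luminescence. Compounds were tested as 11-point 1:3 series in 2% DMSO.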

IC50 [1] [nM] | SMILES | Emax IL2 (% activation) (primary human T-cells) | EC50 (primary human T-cells) [nM]
732 | N#CC1(c2nnc(-c3ccc4c(c3)N(Cc3ccc(-c5ccc(OC(F)(F)F)cn5)cc3)C(=O)[C@@H](N)CS4(=O)=O)o2)CCC1 [Example 172, 1-[5-[(3R)-3-amino-1,1,4-trioxo-5-[[4-[5-(trifluoromethoxy)-2-pyridyl]phenyl]methyl]-2,3-dihydro-1λ^6,5-benzothiazepin-7-yl]-1,3,4-oxadiazol-2-yl]cyclobutanecarbonitrile] | 120 | 1090
734 | CC(C)(CC#N)c1nnc(-c2ccc3c(c2)N(Cc2ccc(-c4ccc(OC(F)(F)F)cn4)cc2)C(=O)[C@@H](N)CS3(=O)=O)o1 [Example 175, 3-[5-[(3R)-3-amino-1,1,4-trioxo-5-[[4-[5-(trifluoromethoxy)-2-pyridyl]phenyl]methyl]-2,3-dihydro-1λ^6,5-benzothiazepin-7-yl]-1,3,4-oxadiazol-2-yl]-3-methyl-butanenitrile] | 52 | > 10000
